The record followed here is patent publication US20220089575A1, “FARNESOID X RECEPTOR AGONISTS AND USES THEREOF” (Metacrine, Inc., priority 2017, published 2022).

pEC50: −log10 of the molar value.

The target of this assay is T1, hFXR (Homo sapiens, UniProt Q96RI1).
T1 construct: expressed in transfected cells; host or cells: CV-1 cells
T1 sequence (Q96RI1 1-486): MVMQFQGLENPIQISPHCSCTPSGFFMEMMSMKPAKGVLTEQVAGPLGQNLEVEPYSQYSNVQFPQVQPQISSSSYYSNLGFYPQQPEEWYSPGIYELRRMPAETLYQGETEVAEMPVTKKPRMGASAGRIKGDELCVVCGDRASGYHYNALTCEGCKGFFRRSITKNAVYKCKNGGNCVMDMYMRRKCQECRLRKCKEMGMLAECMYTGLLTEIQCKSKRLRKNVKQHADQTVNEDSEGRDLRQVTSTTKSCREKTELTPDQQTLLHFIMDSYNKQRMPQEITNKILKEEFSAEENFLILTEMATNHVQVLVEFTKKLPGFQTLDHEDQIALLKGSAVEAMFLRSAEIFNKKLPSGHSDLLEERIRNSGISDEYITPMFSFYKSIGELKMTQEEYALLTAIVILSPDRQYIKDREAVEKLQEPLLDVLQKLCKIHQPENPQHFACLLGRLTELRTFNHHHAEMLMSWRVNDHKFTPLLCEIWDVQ
T1 sequence (P19793 1-462 partner): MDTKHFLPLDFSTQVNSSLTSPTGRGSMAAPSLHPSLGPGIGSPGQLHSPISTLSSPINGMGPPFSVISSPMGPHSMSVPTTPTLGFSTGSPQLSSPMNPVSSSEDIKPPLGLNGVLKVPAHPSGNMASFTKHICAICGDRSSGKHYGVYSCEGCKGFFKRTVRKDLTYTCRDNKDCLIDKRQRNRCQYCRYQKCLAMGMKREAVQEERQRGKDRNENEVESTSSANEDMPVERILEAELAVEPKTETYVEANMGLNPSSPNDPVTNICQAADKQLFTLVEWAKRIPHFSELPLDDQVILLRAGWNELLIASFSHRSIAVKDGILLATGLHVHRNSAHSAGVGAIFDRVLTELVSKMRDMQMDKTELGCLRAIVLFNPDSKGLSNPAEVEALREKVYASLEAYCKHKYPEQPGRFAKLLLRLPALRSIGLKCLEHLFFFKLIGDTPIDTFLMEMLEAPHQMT
In words: In Vitro FXR Assay (TK): TK-ECRE-luc reporter in transfected CV-1 cells. The assay is classed as cell-based. To be noted: 18 hrs, luminescence, maximum efficacy of <25% of the Fexarmine control classified as '+'. The essentials: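 Luciferase read-out after 18 h compound exposure of CV-1 cells carrying transfected hFXR plus hRXR expression plasmids, TK-ECRE-luc reporter and pCMX-YFP. Cells cultured in charcoal-stripped FBS before transfection; compounds serially diluted in DMSO.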
By pEC50 is commonly meant −log10 of the EC50, conventionally taken in molar units. As for `COc1ccc([C@H]2CC[C@H](CN(c3cc(-c4coc(C(C)C)n4)ccn3)C(=O)[C@H]3CC[C@H](OC(=O)N4CC(O)C4)CC3)CC2)cc1C#N` [Compound 7.73, trans-4-(((trans-4-(3-Cyano-4-methoxyphenyl)cyclohexyl)methyl)(4-(2-isopropyloxazol-4-yl)pyridine-2-yl)carbamoyl)cyclohexyl 3-hydroxyazetidine-1-carboxylate], the negative-log EC50 (pEC50) is ≥ 6.60.
Then `COc1ccc([C@H]2CC[C@H](CN(c3cccc(-c4coc(C(C)C)n4)c3)C(=O)[C@H]3CC[C@H](OC(=O)N4CC(O)C4)CC3)CC2)nc1C#N` [Compound 7.74, trans-4-(((trans-4-(6-Cyano-5-methoxypyridin-2-yl)cyclohexyl)methyl)(3-(2-isopropyloxazol-4-yl)phenyl)carbamoyl)cyclohexyl 3-hydroxyazetidine-1-carboxylate], with ≥ 6.60; and `COc1ccc([C@H]2CC[C@H](CN(c3cc(-c4coc(C5CC5)n4)ccn3)C(=O)[C@H]3CC[C@H](OC(=O)N4CCC4)CC3)CC2)nc1C` [Compound 7.75, trans-4-((4-(2-Cyclopropyloxazol-4-yl)pyridine-2-yl)((trans-4-(5-methoxy-6-methylpyridin-2-yl)cyclohexyl)methyl)carbamoyl)cyclohexyl azetidine-1-carboxylate], with ≥ 6.60; and `COc1ccc([C@H]2CC[C@H](CN(c3cc(-c4coc(C5CC5)n4)ccn3)C(=O)[C@H]3CC[C@H](OC(=O)N4CC(OC)C4)CC3)CC2)nc1C` [Compound 7.76, trans-4-((4-(2-Cyclopropyloxazol-4-yl)pyridine-2-yl)((trans-4-(5-methoxy-6-methylpyridin-2-yl)cyclohexyl)methyl)carbamoyl)cyclohexyl 3-methoxyazetidine-1-carboxylate], with ≥ 6.60.
Then `COCC1CN(C(=O)O[C@H]2CC[C@H](C(=O)N(C[C@H]3CC[C@H](c4ccc(OC)c(C)n4)CC3)c3cc(-c4coc(C5CC5)n4)ccn3)CC2)C1` [Compound 7.77, trans-4-((4-(2-Cyclopropyloxazol-4-yl)pyridin-2-yl)((trans-4-(5-methoxy-6-methylpyridin-2-yl)cyclohexyl)methyl)carbamoyl)cyclohexyl 3-(methoxymethyl)azetidine-1-carboxylate], with ≥ 6.60; and `COc1ccc([C@H]2CC[C@H](CN(c3cc(-c4coc(C5CC5)n4)ccn3)C(=O)[C@H]3CC[C@H](OC(=O)N(C)C)CC3)CC2)nc1C` [Compound 7.78, trans-4-((4-(2-Cyclopropyloxazol-4-yl)pyridine-2-yl)((trans-4-(5-methoxy-6-methylpyridin-2-yl)cyclohexyl)methyl)carbamoyl)cyclohexyl dimethylcarbamate], with ≥ 6.60.
Turning to `COc1ccc([C@H]2CC[C@H](CN(c3cc(-c4coc(C5CC5)n4)ccn3)C(=O)[C@H]3CC[C@H](OC(=O)N4CC(N(C)C)C4)CC3)CC2)nc1C` [Compound 7.79, trans-4-((4-(2-Cyclopropyloxazol-4-yl)pyridine-2-yl)((trans-4-(5-methoxy-6-methylpyridin-2-yl)cyclohexyl)methyl)carbamoyl)cyclohexyl 3-(dimethylamino)azetidine-1-carboxylate], the negative-log EC50 (pEC50) was ≥ 6.60.
The same measure for `COc1ccc([C@H]2CC[C@H](CN(c3cc(-c4coc(C5CC5)n4)ccn3)C(=O)[C@H]3CC[C@H](OC(=O)N4CC(CO)C4)CC3)CC2)nc1C` [Compound 7.80, trans-4-(4-(2-Cyclopropyloxazol-4-yl)pyridine-2-yl)((trans-4-(5-methoxy-6-methylpyridin-2-yl)cyclohexyl)methyl) carbamoyl)cyclohexyl 3-(hydroxymethyl)azetidine-1-carboxylate]: ≥ 6.60; for `COc1ccc([C@H]2CC[C@H](CN(c3cc(-c4coc(C5CC5)n4)ccn3)C(=O)[C@H]3CC[C@H](OC(=O)N4CC(N(C)C)C4)CC3)CC2)cc1C` [Compound 7.81, trans-4-((4-(2-Cyclopropyloxazol-4-yl)pyridine-2-yl)((trans-4-(4-methoxy-3-methylphenyl)cyclohexyl)methyl)carbamoyl)cyclohexyl 3-(dimethylamino)azetidine-1-carboxylate]: ≥ 6.60.
Then `COc1ccc([C@H]2CC[C@H](CN(c3cc(-c4coc(C(C)C)n4)ccn3)C(=O)[C@H]3CC[C@H](OC(=O)N4CC(OC)C4)CC3)CC2)nc1C` [Compound 7.82, trans-4-((4-(2-Isopropyloxazol-4-yl)pyridine-2-yl)((trans-4-(5-methoxy-6-methylpyridin-2-yl)cyclohexyl)methyl)carbamoyl)cyclohexyl 3-methoxyazetidine-1-carboxylate], with ≥ 6.60.
The same measure for `COc1ccc([C@H]2CC[C@H](CN(c3cc(-c4coc(C(C)C)n4)ccn3)C(=O)[C@H]3CC[C@H](OC(=O)N4CC(OC(C)C)C4)CC3)CC2)nc1C` [Compound 7.83, trans-4-((4-(2-Isopropyloxazol-4-yl)pyridin-2-yl)((trans-4-(5-methoxy-6-methylpyridin-2-yl)cyclohexyl)methyl)carbamoyl)cyclohexyl 3-isopropoxyazetidine-1-carboxylate]: ≥ 6.60.
As to `COc1ccc([C@H]2CC[C@H](CN(c3cc(-c4coc(C(C)C)n4)ccn3)C(=O)[C@H]3CC[C@H](OC(=O)N4CC(N(C)C)C4)CC3)CC2)nc1C` [Compound 7.84, trans-4-((4-(2-Isopropyloxazol-4-yl)pyridine-2-yl)((trans-4-(5-methoxy-6-methylpyridin-2-yl)cyclohexyl)methyl)carbamoyl)cyclohexyl 3-(dimethylamino)azetidine-1-carboxylate], the negative logarithm of the EC50 (pEC50) was ≥ 6.60.
The same measure for `COC(=O)CC1CN(C(=O)O[C@H]2CC[C@H](C(=O)N(C[C@H]3CC[C@H](c4ccc(OC)c(C)n4)CC3)c3cc(-c4coc(C5CC5)n4)ccn3)CC2)C1` [Compound 7.85, trans-4-((4-(2-Cyclopropyloxazol-4-yl)pyridine-2-yl)((trans-4-(5-methoxy-6-methylpyridin-2-yl)cyclohexyl)methyl)carbamoyl)cyclohexyl 3-(2-methoxy-2-oxoethyl)azetidine-1-carboxylate]: ≥ 6.60; for `COc1ccc([C@H]2CC[C@H](CN(c3cc(-c4coc(C5CC5)n4)ccn3)C(=O)[C@H]3CC[C@H](OC(=O)N4CC(CC(=O)O)C4)CC3)CC2)nc1C` [Compound 7.86, 2-(1-(((trans-4-((4-(2-Cyclopropyloxazol-4-yl)pyridine-2-yl) ((trans-4-(5-methoxy-6-methylpyridin-2-yl)cyclohexyl)methyl)carbamoyl)cyclohexyl)oxy)carbonyl)azetidin-3-yl)acetic acid]: 6.00 to 6.60; for `CCOC1CN(C(=O)O[C@H]2CC[C@H](C(=O)N(C[C@H]3CC[C@H](c4ccc(OC)c(C)n4)CC3)c3cc(-c4coc(C5CC5)n4)ccn3)CC2)C1` [Compound 7.87, trans-4-((4-(2-Cyclopropyloxazol-4-yl)pyridine-2-yl)((trans-4-(5-methoxy-6-methylpyridin-2-yl)cyclohexyl)methyl)carbamoyl)cyclohexyl 3-ethoxyazetidine-1-carboxylate]: ≥ 6.60.
Then `COc1ccc([C@H]2CC[C@H](CN(c3cc(-c4coc(C5CC5)n4)ccn3)C(=O)[C@H]3CC[C@H](OC(=O)N4CC(C#N)C4)CC3)CC2)nc1C` [Compound 7.88, trans-4-((4-(2-Cyclopropyloxazol-4-yl)pyridine-2-yl)((trans-4-(5-methoxy-6-methylpyridin-2-yl)cyclohexyl)methyl)carbamoyl)cyclohexyl 3-cyanoazetidine-1-carboxylate], with ≥ 6.60.
Then `COc1ccc([C@H]2CC[C@H](CN(c3cc(-c4coc(C5CC5)n4)ccn3)C(=O)[C@H]3CC[C@H](OC(=O)N4CC(C)C4)CC3)CC2)nc1C` [Compound 7.89, trans-4-((4-(2-Cyclopropyloxazol-4-yl)pyridine-2-yl)((trans-4-(5-methoxy-6-methylpyridin-2-yl)cyclohexyl)methyl)carbamoyl)cyclohexyl 3-methylazetidine-1-carboxylate], with ≥ 6.60; and `CCC1CN(C(=O)O[C@H]2CC[C@H](C(=O)N(C[C@H]3CC[C@H](c4ccc(OC)c(C)n4)CC3)c3cc(-c4coc(C5CC5)n4)ccn3)CC2)C1` [Compound 7.90, trans-4-((4-(2-Cyclopropyloxazol-4-yl)pyridine-2-yl)((trans-4-(5-methoxy-6-methylpyridin-2-yl)cyclohexyl)methyl)carbamoyl)cyclohexyl 3-ethylazetidine-1-carboxylate], with ≥ 6.60.
